Values quoted from earlier work as cited in US20220000751A1, “METHOD FOR PREPARING AND USING HAIR TREATMENT AGENTS WITH ORGANIC C1-C6-ALKOXY-SILANES” (Henkel AG & Co. KGaA, priority 2020, published 2022).

Settings: 25° C.

Compound	solubility in water	solubility in water (in words)
CCN(Cc1cccc(S(=O)(=O)O)c1)c1ccc(C(=C2C=CC(=[N+](CC)Cc3cccc(S(=O)(=O)O)c3)C=C2)c2ccccc2S(=O)(=O)[O-])cc1 [Acid Blue 9]	more than 20 % by weight	–
O=S(=O)(O)c1ccc(N=Nc2c(O)ccc3ccccc23)cc1 [Acid Orange 7, 4-[(2-hydroxy-1-naphthyl)azo]benzene sulphonate]	more than 7 g/L	–
O=C(O)C1=NN(c2ccc(S(=O)(=O)O)cc2)C(=O)C1N=Nc1ccc(S(=O)(=O)O)cc1 (stereo not drawn) [Acid Yellow 23, 4,5-dihydro-5-oxo-1-(4-sulfophenyl)-4-((4-sulfophenyl)azo)-1H-pyrazole-3-carboxylic acid]	–	highly soluble
